Test results taken from US20160038526A1, “TREATMENT OF PROSTATE CANCER” (THOMAS JEFFERSON UNIVERSITY, priority 2012, published 2016).
“Also recorded” adds a separate entry of the source.

Experiments:
Stat5a/b = assay: Nuclear Stat5a/b immunostaining in CWR22Rv1 xenograft tumors; assay type: in vivo, nude mice; settings: CWR22Rv1 xenograft tumors of Example 10
Protocol: (§1) Nuclear active Stat5a/b or nuclear active Stat3 were analyzed by immunostaining with an anti-Stat5a/b or anti-Stat3 antibody, respectively, and biotin-streptavidin amplified peroxidase antiperoxidase immunodetection of paraffin-embedded sections of the prostate xenograft tumors of Example 10. Anti-Stat5a/b (mAb) (55 ng/ml) (Santa Cruz Biotechnology) was used as the primary antibody and antigen-antibody complexes were detected by appropriate biotinylated goat secondary antibodies (Biogenex Laboratories) followed by streptavidin-horseradish-peroxidase complex, and 3,3′-diaminobenzidine as chromogen and Mayer hematoxylin as counterstain. Three microscopic views of each tumor (ten tumors per each treatment group) were photographed at 20× magnification. Nuclear Stat5 and Stat3 indexes were determined by counting epithelial cells with nuclear Stat5a/b immunostaining-positive cells per total number of epithelial cells per view. The counts were averaged within the tumors in a given treatment group.

Stat3 [1] = assay: Nuclear Stat3 immunostaining in CWR22Rv1 xenograft tumors; assay type: in vivo, nude mice; settings: CWR22Rv1 xenograft tumors of Example 10
Protocol: as §1

CWR22Rv1 cells = assay: Cell viability, MTS metabolic activity assay, CWR22Rv1; assay type: cell-based, human; settings: CWR22Rv1, 72 h
Protocol: (§2) CWR22Rv1 prostate cancer cells were treated with N6BAP or the control compound C5 (Ctrl) at 25 μM concentration or vehicle for 24 h. Following trypan blue exclusion, the attached viable vs. de-attached dead cells were counted. […] The bars indicate mean±SD of triplicate wells. In another assay, CWR22Rv1, LNCaP and DU145 cells were treated with N6BAP, the control compound C5 (Ctrl) or vehicle at indicated concentrations. The fraction of alive cells was determined by MTS ([…]) metabolic activity assay (CellTiter 96® AQueous Assay kit). The results are shown in FIGS. 9C, 9D and 9E, respectively.

Stat3 [2] = target: Stat3 (Homo sapiens, UniProt P40763); assay: IL-6-induced nuclear translocation of Stat3 in DU145 cells (immunofluorescence); assay type: cell-based; set-up: endogenous in cells; host or cells: DU145; settings: 2 hours pretreatment, 10 nmol/L IL-6 30 minutes
Stat3 (Homo sapiens, UniProt P40763), sequence (P40763 whole entry, species assumed): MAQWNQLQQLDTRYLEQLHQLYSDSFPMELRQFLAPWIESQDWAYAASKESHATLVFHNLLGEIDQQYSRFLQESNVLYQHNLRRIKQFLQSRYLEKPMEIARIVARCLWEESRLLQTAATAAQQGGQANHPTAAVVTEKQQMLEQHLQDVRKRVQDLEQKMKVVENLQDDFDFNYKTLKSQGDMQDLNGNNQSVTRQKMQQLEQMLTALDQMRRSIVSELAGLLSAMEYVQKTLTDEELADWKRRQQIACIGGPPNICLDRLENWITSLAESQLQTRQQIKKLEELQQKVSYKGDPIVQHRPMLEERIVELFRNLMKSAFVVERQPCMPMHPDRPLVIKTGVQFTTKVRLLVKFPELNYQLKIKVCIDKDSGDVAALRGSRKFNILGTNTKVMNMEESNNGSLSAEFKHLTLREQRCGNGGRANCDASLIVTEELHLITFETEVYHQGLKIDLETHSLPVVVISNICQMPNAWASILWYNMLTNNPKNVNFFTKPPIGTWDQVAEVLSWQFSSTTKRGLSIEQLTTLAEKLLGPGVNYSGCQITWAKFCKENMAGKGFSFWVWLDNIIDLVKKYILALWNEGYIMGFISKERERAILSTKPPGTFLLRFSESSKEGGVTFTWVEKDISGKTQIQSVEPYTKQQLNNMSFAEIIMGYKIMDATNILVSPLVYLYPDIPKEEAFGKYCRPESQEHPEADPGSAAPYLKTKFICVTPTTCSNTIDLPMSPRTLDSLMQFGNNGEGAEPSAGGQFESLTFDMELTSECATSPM
Protocol: DU145 prostate cancer cells were pretreated with N6BAP or vehicle (DMSO) for 2 hours and then stimulated with 10 nmol/L IL-6 for 30 minutes. Cells were fixed with 100% methanol for 15 min and subsequently permeabilized with 0.1% Triton X-100 in PBS (pH 7.4). After blocking with 2% bovine serum albumin in PBS, cells were incubated with an antibody specific for Stat3 at 4° C. for 2 hours. Cells were then washed with PBS and incubated with FITC-conjugated secondary antibody (Jackson ImmunoResearch) at room temperature for 1 hour. The images were taken by using an inverted fluorescence microscopy (Carl Zeiss).

HepG2 (hepatocellular) = assay: Cell viability assay, HepG2; assay type: cell-based
HT1080 (fibrosarcoma) = assay: Cell viability assay, HT1080; assay type: cell-based
[3] = system: HCT116 human liver cancer cells; assay: Cell viability assay, HCT116; assay type: cell-based
Protocol: as §2
The procedure of Example 9 was followed, substituting cells of the following solid tumor cell lines for the cells treated in Example 9: A549 human lung cancer cells, CAPAN human pancreatic cancer cells, T47D human breast cancer cells, […], A2058 human melanoma and COS-7 monkey fibroblast cell lines.

Jak2 = target: T1, Jak2 (Homo sapiens, UniProt O60674); assay: Jak2 phosphorylation in CWR22Rv1 cells (immunoprecipitation/Western blot); assay type: cell-based; settings: CWR22Rv1 cells, 25, 50 and 100 μM for 2 h, 10 nM Prl 30 minutes
T1 construct: endogenous in cells; host or cells: CWR22Rv1
T1 sequence (O60674 whole entry): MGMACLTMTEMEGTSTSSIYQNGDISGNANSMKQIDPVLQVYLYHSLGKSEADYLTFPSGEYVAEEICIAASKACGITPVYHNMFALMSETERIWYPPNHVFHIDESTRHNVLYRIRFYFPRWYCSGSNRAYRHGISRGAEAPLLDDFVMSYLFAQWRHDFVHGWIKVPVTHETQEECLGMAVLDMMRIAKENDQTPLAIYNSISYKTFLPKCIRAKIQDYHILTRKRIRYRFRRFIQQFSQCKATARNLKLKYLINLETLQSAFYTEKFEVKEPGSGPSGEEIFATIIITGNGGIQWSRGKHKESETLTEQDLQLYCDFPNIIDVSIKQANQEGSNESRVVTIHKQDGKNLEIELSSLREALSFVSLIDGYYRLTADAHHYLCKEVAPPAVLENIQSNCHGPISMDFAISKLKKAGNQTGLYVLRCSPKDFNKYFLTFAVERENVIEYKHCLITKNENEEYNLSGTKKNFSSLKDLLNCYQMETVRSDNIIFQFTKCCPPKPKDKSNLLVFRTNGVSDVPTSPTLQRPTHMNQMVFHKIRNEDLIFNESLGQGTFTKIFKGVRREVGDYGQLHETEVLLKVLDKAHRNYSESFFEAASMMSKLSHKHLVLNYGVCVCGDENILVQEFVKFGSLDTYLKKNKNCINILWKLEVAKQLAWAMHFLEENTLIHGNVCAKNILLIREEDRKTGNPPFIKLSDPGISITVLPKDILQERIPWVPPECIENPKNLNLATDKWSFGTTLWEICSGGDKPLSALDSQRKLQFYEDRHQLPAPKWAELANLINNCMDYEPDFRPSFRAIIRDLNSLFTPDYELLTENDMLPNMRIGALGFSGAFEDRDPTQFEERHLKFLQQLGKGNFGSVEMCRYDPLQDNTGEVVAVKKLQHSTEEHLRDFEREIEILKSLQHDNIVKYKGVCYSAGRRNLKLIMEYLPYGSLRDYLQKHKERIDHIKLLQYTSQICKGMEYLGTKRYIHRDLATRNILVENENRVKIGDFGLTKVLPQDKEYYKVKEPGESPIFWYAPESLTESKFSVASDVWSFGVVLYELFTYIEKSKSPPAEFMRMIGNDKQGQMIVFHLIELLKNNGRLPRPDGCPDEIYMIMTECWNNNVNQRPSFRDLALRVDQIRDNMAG
Protocol: CWR22Rv1 cells were starved for 24 h in serum-free medium, treated N6BAP at 25, 50 and 100 μM concentrations for 2 h, followed by stimulation with 10 nM Prl for 30 minutes. Stat5a and Jak2 were immunoprecipitated with anti-Stat5a or anti-Jak2 pAbs. Immunoprecipitates of CWR22Rv1 cells were blotted with anti-PYStat5, anti-Stat5a/b mAb or anti-PY mAb (for Jak2). Whole cell lysates were immunoblotted with anti-actin pAb for loading control. Because SH2-domain of Stat5 mediates the recruitment of Stat5 to the Prl-receptor-Jak2-complex and Stat5 phosphorylation, N6BAP inhibits Prl-induced phosphorylation of Stat5.
The protocol in more detail comprised the following. Cell pellets were solubilized in lysis buffer [10 mM Tris-HCl (pH 7.6), 5 mM EDTA, 50 mM sodium chloride, 30 mM sodium pyrophosphate, 50 mM sodium fluoride, 1 mM sodium orthovanadate, 1% Triton X-100, 1 mM phenylmethylsulfonyl fluoride, 5 μg/mlaprotinin, 1 μg/ml pepstatin A, and 2 μg/ml leupeptin], rotated end-over-end at 4° C. for 60 min, and insoluble material was pelleted at 12,000×g for 30 min at 4° C. The protein concentrations of clarified cell lysates were determined by simplified Bradford method (Bio-Rad Laboratories, Hercules, Calif.). Stat5a, Stat5b and Jak2 were immunoprecipitated from whole cell lysates with anti-Stat5a, anti-Stat5b (4 μl/ml; Millipore, Billerica, Mass.) or anti-Jak2 (Millipore) pAbs. […]

Stat5b = target: T2, Stat5b (Homo sapiens, UniProt P51692); assay: Stat5b transcriptional activity, β-casein promoter luciferase reporter gene assay in PC-3 cells; assay type: cell-based; settings: 1 hour pretreatment, 10 nM hPrl for 16 hours
T2 construct: expressed in transfected cells; host or cells: PC-3 (human prostate cancer cell line)
T2 sequence (P51692 whole entry, species assumed): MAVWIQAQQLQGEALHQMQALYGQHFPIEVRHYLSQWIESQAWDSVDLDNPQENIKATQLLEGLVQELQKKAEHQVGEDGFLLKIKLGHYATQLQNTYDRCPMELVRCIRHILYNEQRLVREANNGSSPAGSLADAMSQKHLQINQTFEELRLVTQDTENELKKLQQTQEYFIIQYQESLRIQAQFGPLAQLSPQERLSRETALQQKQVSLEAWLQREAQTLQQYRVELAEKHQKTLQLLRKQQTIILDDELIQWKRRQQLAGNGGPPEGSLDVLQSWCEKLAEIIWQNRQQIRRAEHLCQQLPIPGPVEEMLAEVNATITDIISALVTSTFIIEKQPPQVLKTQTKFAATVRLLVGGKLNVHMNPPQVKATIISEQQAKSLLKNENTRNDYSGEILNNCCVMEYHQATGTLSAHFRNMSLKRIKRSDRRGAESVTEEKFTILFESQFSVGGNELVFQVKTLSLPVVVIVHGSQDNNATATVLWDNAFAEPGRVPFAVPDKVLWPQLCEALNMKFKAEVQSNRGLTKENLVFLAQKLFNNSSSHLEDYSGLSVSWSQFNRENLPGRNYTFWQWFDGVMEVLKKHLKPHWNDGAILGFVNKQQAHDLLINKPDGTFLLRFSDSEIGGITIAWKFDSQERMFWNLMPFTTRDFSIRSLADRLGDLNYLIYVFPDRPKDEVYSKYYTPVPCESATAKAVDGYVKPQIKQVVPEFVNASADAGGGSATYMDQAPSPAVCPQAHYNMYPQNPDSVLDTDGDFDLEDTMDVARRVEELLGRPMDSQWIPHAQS
Protocol: Cells of the human prostate cell line PC-3 were plated into 96-well plate at the density of 2×10^5 per well. After 24 hours of plating, cells were transiently co-transfected using FuGENE6 (Roche) with 0.25 μg of each of pStat5a or pStat5b, pPrlR (prolactin receptor) plasmids, 0.5 μg of pBeta-casein-luc and 0.025 μg of pRL-TK (Renilla luciferase) plasmids as an internal control. After another 24 hours of transfection, the cells were starved in serum-free medium for 8 hours, pretreated with N^6-benzyladenosine-5′-monophosphate (“N6BAP”), or one of five control compounds (designated “C3” through “C7”) of similar molecular weight but unrelated chemical structure to N6BAP), for 1 hour, and then stimulated with 10 nM human prolactin (hPrl) in the serum-free medium for additional 16 hours. The lysates were assayed for firefly and Renilla luciferase activities using the Dual-Luciferase reporter assay system (Promega). Three independent experiments were carried out in triplicate. The firefly luciferase activity was normalized to the Renilla luciferase activity of the same sample, and the mean was calculated from the parallels. From the mean values of each independent run, the overall mean and its standard deviation (S.D.) were calculated.

For `O=P(O)(O)OC[C@H]1O[C@@H](n2cnc3c(NCc4ccccc4)ncnc32)[C@H](O)[C@@H]1O` [N6BAP, N^6-benzyladenosine-5′-monophosphate], the “nuclear Stat5a/b expression in xenograft tumors” value (Stat5a/b) was “inhibits nuclear Stat5a/b expression”, the “nuclear Stat3 in xenograft tumors” value (Stat3 [1]) was “without affecting nuclear Stat3” and the “number of viable cells” value (CWR22Rv1 cells) was “decreases the number of viable cells”. The “nuclear translocation of IL-6-induced Stat3” value (Stat3 [2]) was “did not block translocation of Stat3 to the nucleus”, the cell viability (HepG2 (hepatocellular)) was “did not affect the viability” and the cell viability (HT1080 (fibrosarcoma)) was “did not affect the viability”. The cell viability [3] was “did not affect the viability”, the “phosphorylation of Jak2” value (Jak2) was “does not affect phosphorylation of Jak2” and the “transcriptional activity of Stat5b on the β-casein gene promoter” value (Stat5b) was “inhibited Stat5a and Stat5b transcriptional activity in a concentration-dependent manner; also recorded: effectively blocks the transcriptional activity”.
